{"source": "paper PMC9452538", "about": "“The antimicrobial peptide LI14 combats multidrug-resistant bacterial infections” (Communications Biology, 2022)", "key": {"MRSA T144 [1]": {"system": "MRSA T144", "assay": "microbe, parasite or virus in culture", "type": "cell-based, Staphylococcus aureus", "settings": "T144", "procedure,_shortened": "(§1)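 Standard CLSI broth microdilution (2021 guidelines) in MHB with exponential-phase inoculum.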"}, "S. aureus ATCC 29213 [2]": {"system": "S. aureus ATCC 29213", "assay": "microbe, parasite or virus in culture", "type": "cell-based, Staphylococcus aureus", "settings": "ATCC 29213", "procedure,_shortened": "as §1"}, "E. faecium 5F-10": {"system": "E. faecium 5F-10", "assay": "microbe, parasite or virus in culture", "type": "cell-based, Enterococcus faecium", "settings": "5F-10", "experimental": "(§2) An antimicrobial activity study was conducted on all peptides against a panel of laboratory bacteria, including ATCC source and clinical isolates with resistance determinants. According to CLSI2021 guidelines, we tested the minimum inhibitory concentrations (MICs) of peptides using standard broth micro-dilutions. Briefly, bacteria grown to exponential phase were diluted in 1:1000 to MHB, subsequently, equivalent amounts of bacterial suspension (1.5 × 10^6 CFUs/mL) were mixed with different concentrations of peptides in a sterilized 96-well microtiter plate (Corning)."}, "E. coli ATCC 25922 [3]": {"system": "E. coli ATCC 25922", "assay": "microbe, parasite or virus in culture", "type": "cell-based, Escherichia coli", "settings": "ATCC 25922", "procedure,_shortened": "as §1"}, "[4]": {"system": "E. coli B2 (blaNDM-5 + mcr-1)", "assay": "microbe, parasite or virus in culture", "type": "cell-based, Escherichia coli", "settings": "B2 (blaNDM-5 + mcr-1)", "procedure,_shortened": "as §1"}, "A. baumannii ATCC 19609": {"system": "A. baumannii ATCC 19609", "assay": "microbe, parasite or virus in culture", "type": "cell-based, Acinetobacter baumannii", "settings": "ATCC 19609", "experimental": "as §2"}, "[5]": {"system": "A. baumannii C222 (tet(X6))", "assay": "microbe, parasite or virus in culture", "type": "cell-based, Acinetobacter baumannii", "settings": "C222 (tet(X6))", "experimental": "as §2"}, "S. aureus ATCC 29213 [6]": {"system": "S. aureus ATCC 29213", "assay": "Resistance development study, serial passages", "type": "cell-based, Staphylococcus aureus", "settings": "80 serial passages at sub-inhibitory concentration (0.5-fold MIC)", "experimental": "(§3) The ability of LI14 peptide to induce resistance was studied as previously described. Resistance to the therapeutically important drugs rifampicin and ciprofloxacin was measured using S. aureus ATCC 29213 and E. coli ATCC 25922 as test strains. The middle and final MICs were monitored after eighty such serial passages exposed to the tested medicines (0.5-fold MIC), and the fold change in MIC increase was recorded."}, "E. coli ATCC 25922 [7]": {"system": "E. coli ATCC 25922", "assay": "Resistance development study, serial passages", "type": "cell-based, Escherichia coli", "settings": "80 serial passages at sub-inhibitory concentration (0.5-fold MIC)", "experimental": "as §3"}, "[8]": {"system": "MRSA T144 and E. coli B2 established biofilms", "assay": "Treatment of established biofilms", "type": "cell-based", "settings": "128 μg/mL LI14, 2 h", "experimental": "In MHB medium, a mid-logarithmic growth-phase culture was diluted to 10^6 CFUs/ml. A 96-well flat bottom plate was filled with 100 μL of this bacterial suspension per well, which was cultured at 37 °C for 36 h to create mature biofilms. […] Plates were sonicated for 10 min after incubation to remove adhering bacteria, and the number of live bacteria was counted microbiologically."}, "E. coli B2 persisters": {"system": "E. coli B2 persisters", "assay": "Bactericidal activity against persisters", "type": "cell-based, Escherichia coli", "experimental": "(§4) Briefly, the bacteria suspensions after washing were exposed to 50-fold MIC concentrations of vancomycin and tigecycline, respectively, and co-incubation for 4 h to obtain persister cells. […] Subsequently, the primary CFUs/mL were calculated."}, "MRSA T144 persisters": {"system": "MRSA T144 persisters", "assay": "Bactericidal activity against persisters", "type": "cell-based, Staphylococcus aureus", "settings": "within 2 h", "experimental": "as §4"}, "CD-1 mice": {"system": "CD-1 mice", "type": "in vivo", "settings": "10 mg/kg i.p. daily for 6 days, n = 4", "experimental": "LI14 (10 mg/kg, body weight) was intra-peritoneally injected into CD-1 mice (n = 4 biologically independent animals per group) every day for 6 days[64]. Mice were weighed daily and the behaviors of the mice were inspected for one week. Blood from mice was collected on the seventh day for whole-blood cell analysis and kidney chemistry profile. At the same time, the heart, liver, spleen, lung, and kidney of mice were collected for H.E. staining.\nSupplementary Fig. 5 In vivo toxicity assessment of LI14 peptide.\n(a) Scheme of the LI14 peptide toxicity study in mice. CD-1 female mice (n = 4 biologically independent animals per group) were intraperitoneally administered with LI14 (10 mg/kg) daily […]. (b-e) Body weight (b), whole-blood cell profiles (c), serum biochemical […]\n(1 picture or pasted object on this page, not shown here)"}, "E. coli B2": {"system": "E. coli B2", "assay": "Neutropenic mouse thigh infection model", "type": "in vivo, CD-1 mice", "settings": "48 h; for Reduction in CFUs in thigh compared with vehicles: n = 6", "experimental": "(§5) Female CD-1 mice (n = 6 biologically independent animals per group) were first given cyclophosphamide (two consecutive injections of 150 and 100 mg kg^−1 at 4 and 1 day before infection) to construct neutropenia models. The mice’s right thighs were then injected with 100 μL MRSA T144 or E. coli B2 suspensions (10^5 CFUs per mouse). Post-infection of 1 h, 100 μL LI14 peptide (10 or 20 mg/kg), ampicillin/rifampicin (20 mg/kg) or a combination of LI14 with ampicillin/ rifampicin (10 + 20 mg/kg) were given by intraperitoneal injection. All mice were euthanized 48 h after drug administration, and right thigh muscle tissue was removed aseptically, homogenized, serially diluted, and plated on MHA to qualify bacterial loads after overnight incubation at 37 °C."}, "MRSA T144 [9]": {"system": "MRSA T144", "assay": "Neutropenic mouse thigh infection model", "type": "in vivo, CD-1 mice", "settings": "48 h; for Reduction in CFUs in thigh compared with vehicles: n = 6", "experimental": "as §5"}}, "note": "Peptide text beside a SMILES is read from it."}
{"smiles": "CC[C@H](C)[C@H](NC(=O)[C@H](CCCNC(=N)N)NC(=O)[C@H](CS)NC(=O)[C@H](CC(C)C)NC(=O)[C@H](CCCCN)NC(=O)[C@H](CCCCN)NC(=O)[C@H](CC(C)C)NC(=O)[C@@H](NC(=O)[C@H](CCCNC(=N)N)NC(=O)[C@H](CS)NC(=O)[C@H](CC(C)C)NC(=O)[C@H](CCCCN)NC(=O)[C@H](CCCCN)NC(=O)[C@@H](N)CC(C)C)[C@@H](C)CC)C(N)=O", "note": "[LI14] (H-LKKLCRILKKLCRI-NH2)", "values": [{"measurement": "MIC", "setting": "MRSA T144 [1]", "value": 4, "unit": "µg/mL"}, {"measurement": "MIC", "setting": "S. aureus ATCC 29213 [2]", "value": 8, "unit": "µg/mL"}, {"measurement": "MIC", "setting": "E. faecium 5F-10", "value": 64, "unit": "µg/mL"}, {"measurement": "MIC", "setting": "E. coli ATCC 25922 [3]", "value": 8, "unit": "µg/mL"}, {"measurement": "MIC", "setting": "[4]", "value": 4, "unit": "µg/mL"}, {"measurement": "MIC", "setting": "A. baumannii ATCC 19609", "value": 8, "unit": "µg/mL"}, {"measurement": "MIC", "setting": "[5]", "value": 16, "unit": "µg/mL"}, {"measurement": "Increase in MIC after serial passages", "setting": "S. aureus ATCC 29213 [6]", "value": 8, "unit": "fold"}, {"measurement": "Increase in MIC after serial passages", "setting": "E. coli ATCC 25922 [7]", "value": 8, "unit": "fold"}, {"measurement": "Eradication of established biofilms", "setting": "[8]", "value": "almost eradicated all established biofilms"}, {"measurement": "Removal rate of persisters", "setting": "E. coli B2 persisters; 128 μg/mL of LI14", "value": "more than 99%"}, {"measurement": "Clearance rate against persisters", "setting": "E. coli B2 persisters; within 2 h", "value": "above 99%"}, {"measurement": "Clearance rate against persisters", "setting": "MRSA T144 persisters", "value": "above 99%"}, {"measurement": "Behavior and body weight", "setting": "CD-1 mice", "value": "did not observe murine behavior changes or body weight loss"}, {"measurement": "H.E. staining of heart, liver, spleen, lung, kidney", "setting": "CD-1 mice", "value": "no significant difference in histological morphology"}, {"measurement": "Whole-blood cell profiles and serum biochemical index", "setting": "CD-1 mice", "value": "no significant difference compared with the control group"}, {"measurement": "Bacterial load in thigh", "setting": "E. coli B2; LI14 10 mg/kg i.p., animal 1", "value": 5.99, "unit": "Log10CFUs/thigh"}, {"measurement": "Bacterial load in thigh", "setting": "E. coli B2; LI14 10 mg/kg i.p., animal 2", "value": 5.91, "unit": "Log10CFUs/thigh"}, {"measurement": "Bacterial load in thigh", "setting": "E. coli B2; LI14 10 mg/kg i.p., animal 3", "value": 6.58, "unit": "Log10CFUs/thigh"}, {"measurement": "Bacterial load in thigh", "setting": "E. coli B2; LI14 10 mg/kg i.p., animal 4", "value": 6.66, "unit": "Log10CFUs/thigh"}, {"measurement": "Bacterial load in thigh", "setting": "E. coli B2; LI14 10 mg/kg i.p., animal 5", "value": 7.36, "unit": "Log10CFUs/thigh"}, {"measurement": "Bacterial load in thigh", "setting": "E. coli B2; LI14 10 mg/kg i.p., animal 6", "value": 7.31, "unit": "Log10CFUs/thigh"}, {"measurement": "Reduction in CFUs in thigh compared with vehicles", "setting": "E. coli B2; LI14 10 mg/kg i.p.", "value": "~ 2 log10"}, {"measurement": "Bacterial load in thigh", "setting": "E. coli B2; LI14 20 mg/kg i.p., animal 1", "value": 4.93, "unit": "Log10CFUs/thigh"}, {"measurement": "Bacterial load in thigh", "setting": "E. coli B2; LI14 20 mg/kg i.p., animal 2", "value": 4.99, "unit": "Log10CFUs/thigh"}, {"measurement": "Bacterial load in thigh", "setting": "E. coli B2; LI14 20 mg/kg i.p., animal 3", "value": 4.71, "unit": "Log10CFUs/thigh"}, {"measurement": "Bacterial load in thigh", "setting": "E. coli B2; LI14 20 mg/kg i.p., animal 4", "value": 4.79, "unit": "Log10CFUs/thigh"}, {"measurement": "Bacterial load in thigh", "setting": "E. coli B2; LI14 20 mg/kg i.p., animal 5", "value": 5.69, "unit": "Log10CFUs/thigh"}, {"measurement": "Bacterial load in thigh", "setting": "E. coli B2; LI14 20 mg/kg i.p., animal 6", "value": 5.66, "unit": "Log10CFUs/thigh"}, {"measurement": "Reduction in CFUs in thigh compared with vehicles", "setting": "E. coli B2; LI14 20 mg/kg i.p.", "value": 4, "unit": "log10"}, {"measurement": "Bacterial load in thigh", "setting": "MRSA T144 [9]; LI14 10 mg/kg i.p., animal 1", "value": 6.18, "unit": "Log10CFUs/thigh"}, {"measurement": "Bacterial load in thigh", "setting": "MRSA T144 [9]; LI14 10 mg/kg i.p., animal 2", "value": 6.30, "unit": "Log10CFUs/thigh"}, {"measurement": "Bacterial load in thigh", "setting": "MRSA T144 [9]; LI14 10 mg/kg i.p., animal 3", "value": 5.92, "unit": "Log10CFUs/thigh"}, {"measurement": "Bacterial load in thigh", "setting": "MRSA T144 [9]; LI14 10 mg/kg i.p., animal 4", "value": 5.83, "unit": "Log10CFUs/thigh"}, {"measurement": "Bacterial load in thigh", "setting": "MRSA T144 [9]; LI14 10 mg/kg i.p., animal 5", "value": 7.15, "unit": "Log10CFUs/thigh"}, {"measurement": "Bacterial load in thigh", "setting": "MRSA T144 [9]; LI14 10 mg/kg i.p., animal 6", "value": 7.28, "unit": "Log10CFUs/thigh"}, {"measurement": "Reduction in CFUs in thigh compared with vehicles", "setting": "MRSA T144 [9]; LI14 10 mg/kg i.p.", "value": "~ 2 log10"}, {"measurement": "Bacterial load in thigh", "setting": "MRSA T144 [9]; LI14 20 mg/kg i.p., animal 1", "value": 4.32, "unit": "Log10CFUs/thigh"}, {"measurement": "Bacterial load in thigh", "setting": "MRSA T144 [9]; LI14 20 mg/kg i.p., animal 2", "value": 4.36, "unit": "Log10CFUs/thigh"}, {"measurement": "Bacterial load in thigh", "setting": "MRSA T144 [9]; LI14 20 mg/kg i.p., animal 3", "value": 4.77, "unit": "Log10CFUs/thigh"}, {"measurement": "Bacterial load in thigh", "setting": "MRSA T144 [9]; LI14 20 mg/kg i.p., animal 4", "value": 4.61, "unit": "Log10CFUs/thigh"}, {"measurement": "Bacterial load in thigh", "setting": "MRSA T144 [9]; LI14 20 mg/kg i.p., animal 5", "value": 5.45, "unit": "Log10CFUs/thigh"}, {"measurement": "Bacterial load in thigh", "setting": "MRSA T144 [9]; LI14 20 mg/kg i.p., animal 6", "value": 5.51, "unit": "Log10CFUs/thigh"}, {"measurement": "Reduction in CFUs in thigh compared with vehicles", "setting": "MRSA T144 [9]; LI14 20 mg/kg i.p.", "value": 4, "unit": "log10"}]}
